Data taken from patent US20060286046A1, “Skin care compositions” (priority 2005, published 2006).

Legend:
Type in all cases: cell-based, human
JEG-3 cells [1] = experiment: Viability experiments (Alamar Blue and CFDA-AM) after simulated solar radiation (SSR) exposure; details: SSR 16 hours
Procedure: (§1) JEG-3 cells, a human placental choriocarcinoma cell line of epithelial origin, were grown and maintained at 37° C., 5% CO2 in 75 mm^2 culture flasks until a confluent monolayer was formed. Cells were then removed, washed, re-suspended, and counted on a hemocytometer, allowing for the concentration to be adjusted to 30,000 cells/mL. Aliquots of 0.2 mL of the cell solution were added into each well of a 96 well micro-plate. The cells were incubated at 37° C., 5% CO2 for 48 hours prior to treatment to allow for a confluent monolayer to form. The media was aspirated off and new media with test compounds were added at various concentrations.
(§2) All treatments were made in MEM without FBS. The anti-oxidants were added directly to the medium. The cells were then incubated for 16 hours at 37° C./5% CO2 under simulated solar radiation (SSR) conditions, with a UVB:UVA:visible light ratio of 0.3:5.52:96 mmol m−2 s−1 (total fluence rate: 102 mmol m−2 s−1, which is about 5% of full sunlight).
Two viability experiments were done at the end of the incubation periods (Dark or SSR exposure). Alamar Blue™ is a metabolic (primarily mitochondrial) activity indicator that requires the reducing power of the cell to transform the dye from non-fluorescent to fluorescent. Carboxy-fluorescein diacetate (CFDA-AM) is also a fluorescent dye that requires cellular esterases inside a cell to become fluorescent. The presence of an intact membrane allows the CFDA-AM to concentrate and give a higher reading than may occur outside the cell. Both dyes were combined in phosphate buffered saline with glucose (PBSG) buffer and added to the microplate wells after the media (MEM plus treatment) was removed. […] The plates were incubated for 30 minutes at 37° C./5% CO2 and were then read on a fluorimeter (PerSeptive Biosystems Cytofluor 4000) with excitation and emission, respectively, set at 530 nm and 590 nm for Alamar Blue™ and 485 nm and 530 nm for CFDA-AM. Because of the different excitation and emission wavelengths as well as little cross-reactivity, both dyes can be used simultaneously. The results were calculated as a percentage of the control value.

JEG-3 cells [2] = experiment: Metabolic activity (Alamar Blue) after dark exposure; details: incubated in the dark for 24 hours; FIG. 1
Procedure: Alamar Blue™ is a metabolic activity indicator that requires the reducing power of the cell to transform the dye from the non-fluorescent to the fluorescent. Decreased metabolic activity of a cell is generally associated with cell damage due to a variety of stressors.
as §1, with “The media was aspirated off and new media with test compounds were added at various concentrations.” left out
Two viability experiments were done at the end of the incubation periods (Dark or SSR exposure). […] The presence of an intact membrane allows the CFDA-AM to concentrate and give a higher reading than may occur outside the cell. […] The plates were incubated for 30 minutes at 37° C./5% CO2 and were then read on a fluorimeter (PerSeptive Biosystems Cytofluor 4000) with excitation and emission, respectively, set at 530 nm and 590 nm for Alamar Blue™ and 485 nm and 530 nm for CFDA-AM. […] The results were calculated as a percentage of the control value.

JEG-3 cells [3] = experiment: Reactive oxygen species detection (H2DCFDA) after SSR exposure; details: SSR 16 hours; FIG. 4
Procedure: as §1, §2
To determine the levels of ROS generated in the cell system, another fluorescent probe, H2DCFDA, was used. After the 16-hour incubation period under SSR, the media was removed. The probe was added to PBSG in a ratio of 1 μl/ml for a final concentration of 4 nM according to manufacturer instructions. From this mixture, 200 μl/well was added and the plate read on the Cytofluor 4000 at 485 nm excitation and 530 nm emission for 4 hours with readings taken every hour. Results are stated in relative fluorescence units representing the fluorescent product, dichlorofluorescein (DCF). The results were calculated as a percentage of the dark control.

SMILES	protection of cell viability (JEG-3 cells [1]; 10 mM)	metabolic activity compared to control cells (JEG-3 cells [2])	ROS levels (DCF production) (JEG-3 cells [3])	protective effect on ROS compared to other antioxidants (JEG-3 cells [3])	protection of cell viability (JEG-3 cells [1]; all concentrations)
N[C@@H](CCC(=O)N[C@@H](CS)C(=O)NCC(=O)O)C(=O)O [GSH, glutathione]	complete protection				
CC(=O)N[C@@H](CS)C(=O)O [NAC, N-acetylcysteine]	complete protection	did not differ significantly from control	decreased dye levels (DCF production)	superior to ascorbate but not as great as GSH	
O=C1O[C@H]([C@@H](O)CO)C(O)=C1O [ascorbate, ascorbic acid]	only partial protection				
NCCC(=O)N[C@@H](Cc1cnc[nH]1)C(=O)O [carnosine, L-carnosine]	only partial protection	did not differ significantly from control	did not decrease ROS levels		only provided for partial protection of cell viability
